Holding throughout (assay): Dundee kinase panel
Holding throughout (type): biochemical
What all share (details): for remaining activity at 1 µM: read-out: residual activity

The target of one test is T1, Aurora B (Homo sapiens, UniProt Q96GD4).
T1 construct: lines 1-140) and Reaction Biology
Here is the method:
(§1) Compounds were screened at 1 μM. For key hits, pIC50 values were then determined by HTRF as above. […] Stability in mouse and human liver microsomes was determined by Cyprotex.

For a further test, the target named is T2, MST4 (Homo sapiens, UniProt Q9P289).
T2 construct: lines 1-140) and Reaction Biology
T2 sequence (Q9P289 whole entry): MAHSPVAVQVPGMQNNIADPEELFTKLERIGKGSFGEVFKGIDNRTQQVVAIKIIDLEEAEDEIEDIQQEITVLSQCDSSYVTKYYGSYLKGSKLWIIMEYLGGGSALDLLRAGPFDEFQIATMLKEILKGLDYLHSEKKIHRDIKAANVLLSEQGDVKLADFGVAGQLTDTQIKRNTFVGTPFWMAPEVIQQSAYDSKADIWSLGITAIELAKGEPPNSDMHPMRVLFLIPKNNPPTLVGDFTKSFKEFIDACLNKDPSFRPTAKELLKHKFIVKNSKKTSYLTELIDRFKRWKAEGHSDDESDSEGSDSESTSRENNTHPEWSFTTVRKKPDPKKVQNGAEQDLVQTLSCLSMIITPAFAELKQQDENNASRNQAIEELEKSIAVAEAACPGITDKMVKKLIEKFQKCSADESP
Here is the method:
as §1

The target in the next test is T3, YES1 (Homo sapiens, UniProt P07947).
T3 construct: lines 1-140) and Reaction Biology
T3 sequence (P07947 whole entry): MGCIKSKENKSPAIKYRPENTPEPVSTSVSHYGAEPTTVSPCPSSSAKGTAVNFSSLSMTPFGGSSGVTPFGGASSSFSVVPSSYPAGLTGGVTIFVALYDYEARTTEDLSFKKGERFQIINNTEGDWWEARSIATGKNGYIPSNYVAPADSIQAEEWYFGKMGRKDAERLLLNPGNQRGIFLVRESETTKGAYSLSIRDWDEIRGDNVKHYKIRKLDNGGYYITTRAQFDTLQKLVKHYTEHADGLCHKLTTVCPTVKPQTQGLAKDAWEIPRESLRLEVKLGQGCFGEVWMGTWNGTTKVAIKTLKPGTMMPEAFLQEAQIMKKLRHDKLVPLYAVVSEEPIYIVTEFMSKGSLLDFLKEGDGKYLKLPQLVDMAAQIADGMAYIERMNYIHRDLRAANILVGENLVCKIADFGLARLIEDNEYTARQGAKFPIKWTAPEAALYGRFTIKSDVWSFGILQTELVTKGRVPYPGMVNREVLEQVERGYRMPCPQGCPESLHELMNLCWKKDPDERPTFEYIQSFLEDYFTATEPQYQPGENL
Here is the method: as §1

For another test, the target named is T4, EPH-B3 (Homo sapiens, UniProt P54753).
T4 construct: lines 1-140) and Reaction Biology
T4 sequence (P54753 34-998): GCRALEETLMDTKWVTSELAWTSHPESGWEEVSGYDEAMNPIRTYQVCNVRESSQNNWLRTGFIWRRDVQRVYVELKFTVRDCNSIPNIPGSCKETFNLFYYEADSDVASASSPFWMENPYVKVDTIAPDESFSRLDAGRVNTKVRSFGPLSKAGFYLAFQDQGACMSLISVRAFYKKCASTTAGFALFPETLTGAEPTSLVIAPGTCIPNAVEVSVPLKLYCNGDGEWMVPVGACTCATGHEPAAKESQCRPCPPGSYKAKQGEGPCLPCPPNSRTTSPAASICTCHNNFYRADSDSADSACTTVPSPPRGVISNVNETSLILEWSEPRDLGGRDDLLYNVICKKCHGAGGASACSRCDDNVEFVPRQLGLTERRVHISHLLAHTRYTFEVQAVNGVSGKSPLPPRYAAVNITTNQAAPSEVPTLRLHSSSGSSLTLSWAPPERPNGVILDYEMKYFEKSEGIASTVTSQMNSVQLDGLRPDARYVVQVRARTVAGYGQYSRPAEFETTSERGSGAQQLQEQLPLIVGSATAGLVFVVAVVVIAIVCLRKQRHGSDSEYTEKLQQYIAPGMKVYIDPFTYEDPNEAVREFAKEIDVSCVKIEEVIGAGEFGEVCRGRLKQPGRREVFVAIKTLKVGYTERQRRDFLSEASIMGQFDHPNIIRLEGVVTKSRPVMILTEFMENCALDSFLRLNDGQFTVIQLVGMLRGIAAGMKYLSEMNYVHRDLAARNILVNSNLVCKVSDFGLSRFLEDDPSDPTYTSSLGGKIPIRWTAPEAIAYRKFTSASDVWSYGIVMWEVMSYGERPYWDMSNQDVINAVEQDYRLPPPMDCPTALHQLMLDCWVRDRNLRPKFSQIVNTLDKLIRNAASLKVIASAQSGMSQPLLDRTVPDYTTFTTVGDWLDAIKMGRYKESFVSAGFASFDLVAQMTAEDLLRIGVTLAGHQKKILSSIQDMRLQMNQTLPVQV
Here is the method: as §1

The next test has as its target T5, IGF-1R (Homo sapiens, UniProt P08069).
T5 construct: lines 1-140) and Reaction Biology
Here is the method: as §1

In a further test the target is T6, ZAP70 (Homo sapiens, UniProt P43403).
T6 construct: lines 1-140) and Reaction Biology
T6 sequence (P43403 1-619): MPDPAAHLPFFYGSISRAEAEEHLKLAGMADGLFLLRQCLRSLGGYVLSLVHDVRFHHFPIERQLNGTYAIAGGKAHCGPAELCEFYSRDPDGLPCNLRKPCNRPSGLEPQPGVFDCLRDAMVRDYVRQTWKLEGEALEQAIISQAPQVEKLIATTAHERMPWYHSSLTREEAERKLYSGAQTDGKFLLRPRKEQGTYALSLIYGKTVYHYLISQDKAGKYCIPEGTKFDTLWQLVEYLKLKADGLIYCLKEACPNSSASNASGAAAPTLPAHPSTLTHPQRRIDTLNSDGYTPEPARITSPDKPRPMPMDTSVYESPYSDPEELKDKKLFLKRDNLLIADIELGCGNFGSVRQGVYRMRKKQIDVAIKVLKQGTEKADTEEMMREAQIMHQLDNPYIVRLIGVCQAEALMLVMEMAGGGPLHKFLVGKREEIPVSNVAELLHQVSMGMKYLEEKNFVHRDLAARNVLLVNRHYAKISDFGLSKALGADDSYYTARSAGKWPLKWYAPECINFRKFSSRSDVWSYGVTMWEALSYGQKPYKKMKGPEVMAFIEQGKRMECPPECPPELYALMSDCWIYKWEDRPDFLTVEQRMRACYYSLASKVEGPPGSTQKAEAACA
Here is the method:
as §1

Another test concerns the target T7, DYRK3 (Homo sapiens, UniProt O43781).
T7 construct: lines 1-140) and Reaction Biology
T7 sequence (O43781 1-588): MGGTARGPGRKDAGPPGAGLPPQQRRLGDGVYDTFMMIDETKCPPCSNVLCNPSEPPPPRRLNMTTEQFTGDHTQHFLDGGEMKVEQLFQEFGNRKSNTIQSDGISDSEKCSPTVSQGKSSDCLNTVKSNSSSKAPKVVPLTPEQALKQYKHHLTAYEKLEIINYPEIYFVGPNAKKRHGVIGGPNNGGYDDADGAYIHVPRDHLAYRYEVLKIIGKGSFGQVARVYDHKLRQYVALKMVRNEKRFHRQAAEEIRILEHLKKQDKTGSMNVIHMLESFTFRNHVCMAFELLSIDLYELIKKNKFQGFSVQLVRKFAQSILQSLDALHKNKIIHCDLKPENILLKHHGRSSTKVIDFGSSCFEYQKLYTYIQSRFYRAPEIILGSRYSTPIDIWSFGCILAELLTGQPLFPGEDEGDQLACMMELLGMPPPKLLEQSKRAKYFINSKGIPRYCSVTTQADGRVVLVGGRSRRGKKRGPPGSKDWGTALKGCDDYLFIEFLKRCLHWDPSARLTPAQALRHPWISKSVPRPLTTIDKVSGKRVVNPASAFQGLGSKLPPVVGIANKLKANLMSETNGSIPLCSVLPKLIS
Here is the method:
as §1

The next test concerns the target T8, MPSK1 (Homo sapiens, UniProt O75716).
T8 construct: lines 1-140) and Reaction Biology
Here is the method:
as §1

The next test concerns the target T9, MKK6 (Homo sapiens, UniProt P52564).
T9 construct: lines 1-140) and Reaction Biology
T9 sequence (P52564 1-334): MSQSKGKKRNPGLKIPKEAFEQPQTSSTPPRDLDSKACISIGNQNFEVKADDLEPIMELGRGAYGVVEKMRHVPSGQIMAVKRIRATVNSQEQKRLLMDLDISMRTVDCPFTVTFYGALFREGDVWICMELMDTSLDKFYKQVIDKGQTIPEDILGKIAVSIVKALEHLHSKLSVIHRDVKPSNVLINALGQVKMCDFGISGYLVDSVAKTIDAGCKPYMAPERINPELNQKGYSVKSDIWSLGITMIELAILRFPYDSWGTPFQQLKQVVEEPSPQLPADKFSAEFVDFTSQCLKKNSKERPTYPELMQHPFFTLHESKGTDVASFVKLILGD
Here is the method:
as §1

Another test concerns the target T10, p38b MAPK (Homo sapiens, UniProt Q15759).
T10 construct: lines 1-140) and Reaction Biology
Here is the method: as §1

Results on five molecules are retold here after publication PMC6458995, “MAP4K4 Inhibition Promotes Survival of Human Stem Cell-Derived Cardiomyocytes and Reduces Infarct Size In Vivo” (Cell Stem Cell, 2019).

By residual activity is commonly meant the signal under treatment as a percentage of the control signal.

T10 sequence (Q15759 whole entry): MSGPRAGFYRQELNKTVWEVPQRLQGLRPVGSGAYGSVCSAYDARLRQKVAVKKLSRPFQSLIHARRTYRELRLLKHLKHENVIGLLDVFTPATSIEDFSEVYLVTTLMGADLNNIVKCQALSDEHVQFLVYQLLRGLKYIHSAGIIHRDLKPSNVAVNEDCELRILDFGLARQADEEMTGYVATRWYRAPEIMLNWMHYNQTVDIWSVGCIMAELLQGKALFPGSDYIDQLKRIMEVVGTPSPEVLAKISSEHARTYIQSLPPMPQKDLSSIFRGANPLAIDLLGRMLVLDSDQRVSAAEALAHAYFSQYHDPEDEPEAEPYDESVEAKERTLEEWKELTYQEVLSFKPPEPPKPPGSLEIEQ
T8 sequence (O75716 whole entry): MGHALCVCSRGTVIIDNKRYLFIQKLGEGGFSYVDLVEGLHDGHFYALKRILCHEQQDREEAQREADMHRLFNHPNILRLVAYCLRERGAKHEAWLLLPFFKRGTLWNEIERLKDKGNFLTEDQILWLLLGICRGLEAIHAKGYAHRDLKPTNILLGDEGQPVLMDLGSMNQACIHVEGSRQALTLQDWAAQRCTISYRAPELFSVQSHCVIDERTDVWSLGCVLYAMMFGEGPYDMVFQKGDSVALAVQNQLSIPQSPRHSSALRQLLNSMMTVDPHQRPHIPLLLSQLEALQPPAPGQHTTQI
T5 sequence (P08069 31-1367): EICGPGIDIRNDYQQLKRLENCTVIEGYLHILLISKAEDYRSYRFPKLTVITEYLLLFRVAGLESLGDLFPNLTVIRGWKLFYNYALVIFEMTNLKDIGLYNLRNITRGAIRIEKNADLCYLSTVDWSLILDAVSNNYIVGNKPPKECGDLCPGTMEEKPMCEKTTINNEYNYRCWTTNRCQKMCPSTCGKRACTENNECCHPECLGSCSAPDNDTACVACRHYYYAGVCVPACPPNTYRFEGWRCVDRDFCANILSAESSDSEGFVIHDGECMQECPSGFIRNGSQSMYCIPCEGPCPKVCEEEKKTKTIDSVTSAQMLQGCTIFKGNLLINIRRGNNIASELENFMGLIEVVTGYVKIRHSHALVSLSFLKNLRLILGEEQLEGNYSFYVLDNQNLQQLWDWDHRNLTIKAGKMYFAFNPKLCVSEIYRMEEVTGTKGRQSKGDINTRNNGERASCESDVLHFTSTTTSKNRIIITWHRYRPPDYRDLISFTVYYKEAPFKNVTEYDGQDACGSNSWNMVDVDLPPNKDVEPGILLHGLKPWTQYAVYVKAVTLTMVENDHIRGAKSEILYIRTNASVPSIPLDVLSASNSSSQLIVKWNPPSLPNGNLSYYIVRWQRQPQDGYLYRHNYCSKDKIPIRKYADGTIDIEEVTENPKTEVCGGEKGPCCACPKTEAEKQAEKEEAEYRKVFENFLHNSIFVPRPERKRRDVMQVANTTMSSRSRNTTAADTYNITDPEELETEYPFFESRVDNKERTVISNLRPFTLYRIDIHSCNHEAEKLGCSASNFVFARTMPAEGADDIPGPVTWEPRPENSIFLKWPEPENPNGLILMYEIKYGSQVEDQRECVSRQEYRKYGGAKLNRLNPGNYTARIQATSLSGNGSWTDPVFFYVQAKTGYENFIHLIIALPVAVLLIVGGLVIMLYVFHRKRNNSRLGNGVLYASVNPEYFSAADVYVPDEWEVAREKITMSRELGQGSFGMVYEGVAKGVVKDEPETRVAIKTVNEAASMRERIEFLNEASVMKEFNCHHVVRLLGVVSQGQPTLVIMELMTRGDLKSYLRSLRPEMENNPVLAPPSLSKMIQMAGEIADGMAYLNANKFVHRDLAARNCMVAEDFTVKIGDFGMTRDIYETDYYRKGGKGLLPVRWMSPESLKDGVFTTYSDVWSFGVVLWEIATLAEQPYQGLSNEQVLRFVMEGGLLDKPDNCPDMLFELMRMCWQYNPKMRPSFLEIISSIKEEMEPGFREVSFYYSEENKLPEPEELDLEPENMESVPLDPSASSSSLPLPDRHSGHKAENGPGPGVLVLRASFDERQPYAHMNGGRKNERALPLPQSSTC
T1 sequence (Q96GD4 whole entry): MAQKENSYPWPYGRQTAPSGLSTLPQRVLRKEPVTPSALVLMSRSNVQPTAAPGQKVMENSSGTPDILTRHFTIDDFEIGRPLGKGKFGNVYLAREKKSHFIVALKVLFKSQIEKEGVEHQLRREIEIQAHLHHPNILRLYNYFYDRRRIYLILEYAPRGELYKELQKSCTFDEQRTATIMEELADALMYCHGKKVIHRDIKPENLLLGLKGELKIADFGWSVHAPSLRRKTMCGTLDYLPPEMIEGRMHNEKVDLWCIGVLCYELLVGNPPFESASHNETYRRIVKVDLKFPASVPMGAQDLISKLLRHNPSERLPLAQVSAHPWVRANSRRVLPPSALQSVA

On to `COCCOc1ccc(-c2cn(-c3ccccc3)c3nc[nH]c(=O)c23)cc1` [DMX-5804, 5-[4-(2-methoxy-ethoxy)-phenyl]-7-phenyl-3,7-dihydro-pyrrolo[2,3-d]pyrimidin-4-one], for which the remaining activity at 1 µM at Aurora B was 29%; at MST4, 102%; on YES1 it was 96%; at EPH-B3, 96%; on IGF-1R it was 112%; on ZAP70 it was 94%. For the same molecule, the remaining activity at 1 µM stood at 128% on DYRK3, 103% at MPSK1, 112% on MKK6 and 93% on p38b MAPK.
Regarding `Oc1ncnc2c1c(-c1ccccc1)cn2-c1ccccc1` [F1386-0303, 5,7-diphenyl-7H-pyrrolo[2,3-d]pyrimidin-4-ol], the remaining activity at 1 µM on Aurora B came out at 85%; at MST4, 109%; at YES1, 85%; at EPH-B3 it was 104%; at IGF-1R it was 108%; on ZAP70, 114%. Moreover, the remaining activity at 1 µM on DYRK3 turned out to be 101%; at MPSK1 it was 117%; at MKK6, 105%; at p38b MAPK it was 96%.
For `Nc1ncc(C(=O)NC2CN(C(=O)C3CC3)C2)c2ccc(-c3cccc(F)c3)nc12` [GNE-495], the residual activity at Aurora B (1 μM) worked out at 46%; on MST4 (1 μM), 117%; at YES1 (1 μM) it was 53%; on EPH-B3 (1 μM) it was 87%; at IGF-1R (1 μM) it was 85%; on ZAP70 (1 μM) it was 109%. Further, the residual activity at DYRK3 (1 μM) is on record as 83%; at MPSK1 (1 μM), 100%; on MKK6 (1 μM), 97%; on p38b MAPK (1 μM) it was 100%.
With `O=C1Nc2ccc(I)cc2/C1=C/c1cc(Br)c(O)c(Br)c1` [GW5074], the remaining activity at 1 µM on Aurora B came to 29%; on MST4, 89%; at YES1, 93%; on EPH-B3, 94%; at IGF-1R, 88%; on ZAP70, 98%. Moreover, the remaining activity at 1 µM at DYRK3 was 14%; at MPSK1, 38%; on MKK6 it was 81%; at p38b MAPK, 77%.
Regarding `O=C1Cc2c([nH]c3ccc(Br)cc23)-c2ccccc2N1` [Kenpaullone], the remaining activity at 1 µM on Aurora B is 46%; at MST4, 74%; at YES1, 100%; on IGF-1R, 74%; on ZAP70 it was 59%; on DYRK3, 72%. The remaining activity at 1 µM at MPSK1 was found to be 74%; on MKK6 it was 102%; at p38b MAPK, 95%.
